# From patent US10526389B2, “Peptides and combinations of peptides for use in immunotherapy against lung cancer, including NSCLC and other cancers” (Immatics Biotechnologies GmbH, priority 2015, dated 2020)
# Assays:
# CD4+ T cells = assay: HLA class II T-cell proliferation assay (ProImmune, CFSE); assay type: cell-based, human; conditions: 7 days; for Number of positive donors: 21 donor samples, positive = over 0.02% stimulation above background; for Number of positive donors / Strength of response: mean in % above the background: 5 μM peptide; for Strength of response: mean in % above the background: CD4+ T-cell proliferation (CFSE)
# Text: The experiments as follows summarize the results of T-cell Proliferation Assays of selected MHC class II TUMAPs. Nine of 10 tested peptide antigens tested positive for immunogenicity. […] Individual peptide antigens stimulated the CD4+ T-cell proliferation in up to 6 donors. […] Thus, it can be concluded that the newly tested peptides also have a high potential to induce T-cell responses in vaccine trials.
# In order to characterize selected peptides for their potential especially as vaccine candidates, their in vitro immunogenicity was determined by analysis of T-cell proliferation using a commercial T-cell Proliferation Assay from the company ProImmune.
# Healthy donor CD8-depleted blood cells samples were tested with the selected peptides. The peptides that induce the proliferation of CD4+ T cells can potentially result in the development of a helper T-cell immune response, and therefore are considered to be immunogenic. The proliferation of CD4+ T cells was determined using carboxyfluorescein succinimidyl ester (CFSE) labelling. In proliferating cells, CFSE is distributed evenly to dividing cells. Thus, the proliferation can be measured as a decrease in CFSE fluorescence in the cells as analyzed.
# Peripheral blood mononuclear cell (PBMC) samples from healthy human donors were selected from the ProImmune cell bank based on HLA-DRB1 allele expression. CD8^+ T-cells were depleted from donor blood samples prior to use to avoid a false-positive response. The remaining CD4^+ T cells were labelled with CFSE and subsequently incubated with 5 μM of each selected peptide. Each peptide was tested in six replicated wells. The background was measured on each plate in six unstimulated control wells.
# After an incubation period of 7 days the cells were co-stained with anti-CD4 antibody and analyzed by flow cytometry. The degree of proliferation was determined by measuring a reduction in CFSE intensity.
# The evaluation of flow cytometric data was performed using FlowJo Software (Tree Star, Inc.). The results of flow cytometric analysis were expressed as the ratio of the CD4^+ dim population to the total CD4^+ population. The degree of proliferation was expressed as percentage of stimulation above background, i.e. proportion of antigen stimulated CD4^+ CFSE dim cells minus the proportion of CD4^+ CFSE dim cells from unstimulated control wells. For each sample, a mean and the corresponding standard error of the mean (SEM) of the six replicates were calculated.
# Donors were chosen by HLA-DRB1 allele expression. The other two HLA class II loci (DQ and DP) have not been included into the analysis. The interesting DRB1 alleles were selected according to the frequencies of predicted peptide binding based on […] algorithm (Rammensee et al., 1999). For HLA-DR, binding was defined by a […] binding prediction score equal or greater than 18. This threshold score for binding was defined based on the analysis of binding scores of known published promiscuous HLA-DR ligands (Table 24).
# All DRB1 alleles with binding frequency over 20% over all selected peptides were requested to be included into the donor panel) by ProImmune. 4 other rare DRB1 alleles (DRB1*10:01, DRB1*16:01, DRB1*08:01, and DRB1*13:03) were requested additionally.
# The antigen-stimulated proliferation of CD4^+ T cells was considered as an indicator of in vitro immunogenicity and was investigated in a commercially available T-cell Proliferation Assay from ProImmune. The degree of antigen-stimulated CD4^+ T-cell proliferation was expressed as a percentage of stimulation above background. A response over 0.02% stimulation above background with SEM=2 (i.e. values two standard errors greater than background) was considered to be positive.
# CD8+ T cells = assay: In vitro immunogenicity of HLA-A*24 peptides (CD8+ T-cell priming with aAPCs, multimer staining); assay type: cell-based, human
# Procedure: In order to obtain information regarding the immunogenicity of the TUMAPs of the present invention, the inventors performed investigations using an in vitro T-cell priming assay based on repeated stimulations of CD8+ T cells with artificial antigen presenting cells (aAPCs) loaded with peptide/MHC complexes and anti-CD28 antibody.
# Generation of pMHC/anti-CD28 coated beads, T-cell stimulations and readout was performed in a highly defined in vitro system using four different pMHC molecules per stimulation condition and 8 different pMHC molecules per readout condition.
# The purified co-stimulatory mouse IgG2a anti human CD28 Ab 9.3 (Jung et al., 1987) was chemically biotinylated using Sulfo-N-hydroxysuccinimidobiotin as recommended by the manufacturer (Perbio, Bonn, Germany). Beads used were 5.6 μm diameter streptavidin coated polystyrene particles (Bangs Laboratories, Illinois, USA).
# 800.000 beads/200 μl were coated in 96-well plates in the presence of 4×12.5 ng different biotin-pMHC, washed and 600 ng biotin anti-CD28 were added subsequently in a volume of 200 μl. Stimulations were initiated in 96-well plates by co-incubating 1×10^6 CD8+ T cells with 2×10^5 washed coated beads in 200 μl TCM supplemented with 5 ng/ml IL-12 (PromoCell) for 3 days at 37° C. Half of the medium was then exchanged by fresh TCM supplemented with 80 U/ml IL-2 and incubating was continued for 4 days at 37° C. This stimulation cycle was performed for a total of three times. For the pMHC multimer readout using 8 different pMHC molecules per condition, a two-dimensional combinatorial coding approach was used as previously described (Andersen et al., 2012) with minor modifications encompassing coupling to 5 different fluorochromes. Finally, multimeric analyses were performed by staining the cells with Live/dead near IR dye (Invitrogen, Karlsruhe, Germany), CD8-FITC antibody clone SK1 (BD, Heidelberg, Germany) and fluorescent pMHC multimers. For analysis, a BD LSRII SORP cytometer equipped with appropriate lasers and filters was used. Peptide specific cells were calculated as percentage of total CD8+ cells. Evaluation of multimeric analysis was done using the FlowJo software (Tree Star, Oregon, USA). In vitro priming of specific multimer+CD8+ lymphocytes was detected by comparing to negative control stimulations.
# Exemplary flow cytometry results after TUMAP-specific multimer staining for 3 peptides of the invention are shown in FIGS. 3A-3E together with corresponding negative controls.
Substance,Number of positive donors (CD4+ T cells),Strength of response: mean in % above the background (CD4+ T cells) [%],in vitro immunogenicity: donors (CD8+ T cells),in vitro immunogenicity: wells (CD8+ T cells),"tested positive for immunogenicity (antigen-stimulated CD4+ T-cell proliferation) (CD4+ T cells; positive: >0.02% stimulation above background, 5 uM peptide)"
"MMP-001: IMA910 class II peptide, positive control with known in vivo immunogenicity (SQDDIKGIQKLYGKRS; listed as Homo sapiens) [reference compound]",2,0.09,,,
COL11A1-001 (EGDIQQFLITGDPKAAYDY; listed as Homo sapiens),5,0.19,,,
IGF2BP3-002 (KLYIGNLSENAAPS; listed as Homo sapiens),3,0.40,,,
POSTN-002 (TNGVIHVVDKLLYPADT; listed as Homo sapiens),2,0.39,,,
ITGB6-001 (NPVSQVEILKNKPLSVG; listed as Homo sapiens),6,0.23,,,
"TGFBI-004: IMA910 class II peptide, positive control with known in vivo immunogenicity (TPPIDAHTRNLLRNH; listed as Homo sapiens) [reference compound]",2,0.19,,,
LAMP3-002 (IQLIVQDKESVFSPR; listed as Homo sapiens),5,0.25,,,
MMP12-007 (LSADDIRGIQSLYGDPK; listed as Homo sapiens),2,0.28,,,
SP14-001 (AYPDLNEIYRSF; listed as Homo sapiens),,,+ (<20% = +),+ (<20% = +),
COL1A2-001 (NKPSRLPFLDIAPLDIGGAD; listed as Homo sapiens),2,0.48,,,
G2E-002 (LYINKANIW; listed as Homo sapiens),,,++ (20%-49% = ++),+ (<20% = +),
FN1-002: selected HLA class II peptide antigen of the T-cell proliferation assay; probably the FN1 HLA-DR peptide SEQ ID No. 93 (SRPQAPITGYRIVYSPSV; listed as Homo sapiens),,,,,exception
"CEA-006: IMA910 class II peptide, positive control with known in vivo immunogenicity (SPQYSWRINGIPQQHT; listed as Homo sapiens) [reference compound]",1,0.20,,,
COL6A3-001 (SYLQAANAL; listed as Homo sapiens),,,++ (20%-49% = ++),+ (<20% = +),
NUP153-001 (VYFKPSLTPSGEF; listed as Homo sapiens),,,+ (<20% = +),+ (<20% = +),
SMPDL3B-001 (IYNQIAELW; listed as Homo sapiens),,,++++ (>= 70% = ++++),++ (20%-49% = ++),
YYTKGFALLNF (listed as Homo sapiens) [SEQ ID No. 29],,,+++ (50%-69% = +++),+ (<20% = +),
COL6A3-012 (RYPPPVREF; listed as Homo sapiens),,,++++ (>= 70% = ++++),++ (20%-49% = ++),
COLEC12-001 (IYAGQWNDF; listed as Homo sapiens),,,+++ (50%-69% = +++),+ (<20% = +),
RBPJ-001 (RYLHVEGGNF; listed as Homo sapiens),,,++ (20%-49% = ++),+ (<20% = +),
LAMC2-003 (DAVQMVITEAQKVDTR; listed as Homo sapiens),3,0.27,,,
OLFML2B-001 (YYGNTLVEF; listed as Homo sapiens),,,++++ (>= 70% = ++++),++ (20%-49% = ++),
TRIM11-001 (IFLDYEAGHLSF; listed as Homo sapiens),,,+ (<20% = +),+ (<20% = +),
GLS-001 (DYIPQLAKF; listed as Homo sapiens),,,++++ (>= 70% = ++++),+ (<20% = +),
COL5A2-001 (VARLPIIDLAPVDVGGTD; listed as Homo sapiens),2,0.21,,,
